Like-named read-outs stand apart in the source and are kept apart here.
Columns and labels:
SH-SY5Y cells [1] = assay: AK (adenylate kinase) release ToxiLight cytotoxicity assay; note: reference of the scale not given here
endogenous TFE3 = assay: TFE3 nuclear translocation, immunocytochemistry high-content imaging; type: cell-based
SH-SY5Y cells [2] = assay: Nuclear count from microscopy images (cellular growth and toxicity); note: reference of the scale not given here
endogenous TFEB = assay: TFEB nuclear translocation, immunocytochemistry high-content imaging; type: cell-based
SH-SY5Y cells [3] = system: SH-SY5Y cells; note: reference of the scale not given here
[4] = PKIS2 primary screening, DQ Red BSA intensity
[5] = PKIS2 primary screening, DQ Red BSA spot count

SMILES | AK (SH-SY5Y cells [1]; PKIS2 primary screening) | TFE3 % (endogenous TFE3; PKIS2 primary screening) | Nuclear Count (SH-SY5Y cells [2]; PKIS2 primary screening) | TFEB % (endogenous TFEB; PKIS2 primary screening) | DQ Intensity (SH-SY5Y cells [3]; PKIS2 primary screening) | DQ Spot (SH-SY5Y cells [3]; PKIS2 primary screening) | DQ Intensity (SH-SY5Y cells [3]; [4]) | DQ Spot (SH-SY5Y cells [3]; [5]) | AK (SH-SY5Y cells [1]; PKIS2 primary screen) | TFE3 % (endogenous TFE3; PKIS2 primary screen) | Nuclear Count (SH-SY5Y cells [2]; PKIS2 primary screen) | TFEB % (endogenous TFEB; PKIS2 primary screen) | DQ Intensity (SH-SY5Y cells [3]; PKIS2 primary screen, DQ Red BSA intensity) | DQ Spot (SH-SY5Y cells [3]; PKIS2 primary screen, DQ Red BSA spot count)
COc1cccc(CC(=O)N2CCc3cc(-c4cn(C)c5ncnc(N)c45)ccc32)c1 [UNC10224987A] | 97.56 | 10.50% | 115.64 | 11.97% | 104.40 | 98.28 |  |  |  |  |  |  |  | 
NS(=O)(=O)CCc1cccc(Nc2nccc(-c3c(-c4cccc(NC(=O)c5c(F)cccc5F)c4)nn4ccccc34)n2)c1 [UNC10224988A] | 106.43 | 7.44% | 124.64 | 3.80% | 109.41 | 101.39 |  |  |  |  |  |  |  | 
Cl.O=S(=O)(c1cccc(F)c1)c1ccc(Nc2ncnc3cc(Br)sc23)cc1Cl [UNC10224990A] | 136.08 | 13.25% | 81.79 | 10.77% |  |  | 81.12 | 105.16 |  |  |  |  |  | 
CC(C)c1nc(-c2cccc(NS(=O)(=O)c3c(F)cccc3F)c2F)c(-c2ccnc(Nc3ccc(N4CCOCC4)nc3)n2)s1 [UNC10224991A] | 96.03 | 13.92% | 54.49 | 5.34% | 137.04 | 135.69 |  |  |  |  |  |  |  | 
Cc1ccc(NC(=O)Nc2ccccc2)cc1-c1ccc(C(=O)Nc2ccncc2)cc1 [UNC10224992A] | 119.72 | 19.70% | 89.66 | 8.91% | 74.41 | 94.75 |  |  |  |  |  |  |  | 
Nc1ncnc2occ(-c3ccc4c(c3)CCN4C(=O)Cc3cc(F)ccc3F)c12 [UNC10225000A] | 111.48 | 4.51% | 124.09 | 2.84% |  |  | 134.29 | 108.59 |  |  |  |  |  | 
Cc1c(Cn2c(C)nn3c(=O)cc(N4CCOC(C)C4)nc23)cccc1C(F)(F)F (stereo not drawn) [UNC10225005A] |  |  |  |  |  |  |  |  | 90.28 | 10.85% | 125.80 | 4.71% | 85.13 | 83.90
Cc1ccc(NC(=O)c2ccnc(N3CCN(C)CC3)c2)cc1-c1ccc(C(=O)NCC2CC2)cc1 [UNC10225009A] | 154.31 | 12.99% | 101.80 | 4.01% | 132.78 | 99.28 |  |  |  |  |  |  |  | 
NC(=O)c1cc(-c2ccccc2)cc2c(C3CCNCC3)c[nH]c12 [UNC10225015A] | 102.13 | 15.20% | 93.78 | 3.89% | 84.06 | 101.36 |  |  |  |  |  |  |  | 
Cc1ccc(NC(=O)Nc2cccc(Cl)c2)cc1-c1ccc(C(=O)Nc2ccncc2)cc1 [UNC10225019A] | 95.29 | 11.19% | 106.82 | 7.29% | 128.25 | 121.60 |  |  |  |  |  |  |  | 
c1ccc(-c2cnc3nccnn23)cc1 [UNC10225020A] | 125.59 | 11.36% | 110.84 | 8.54% | 109.95 | 119.05 |  |  |  |  |  |  |  | 
Cc1ccc(NC(=O)c2cccc(N3CCCCC3)c2)cc1-c1ccc(C(=O)NCC2CC2)cc1 [UNC10225021A] | 68.90 | 7.57% | 118.95 | 6.38% | 102.66 | 94.61 |  |  |  |  |  |  |  | 
NCCNS(=O)(=O)c1ccc(-c2ccnc3[nH]ccc23)cc1 [UNC10225023A] | 82.12 | 9.07% | 129.56 | 3.25% |  |  | 104.54 | 94.72 |  |  |  |  |  | 
NCCNS(=O)(=O)c1ccc(-c2ccnc3[nH]ccc23)cc1 [UNC10225023B] | 72.23 | 14.03% | 135.88 | 3.92% |  |  | 110.40 | 102.49 |  |  |  |  |  | 
O=c1cc(N2CCOCC2)nc2n(Cc3cccc(C(F)(F)F)c3)ccn12 [UNC10225024A] | 84.29 | 12.11% | 98.56 | 3.55% | 73.22 | 100.00 |  |  |  |  |  |  |  | 
COc1cccc(-c2nc(-c3ccccc3)[nH]c2-c2ccncc2)c1 [UNC10225025A] | 113.94 | 10.01% | 132.30 | 4.20% |  |  | 97.17 | 101.78 |  |  |  |  |  | 
Cc1cccc(Nc2nc(NCCN)ncc2C(N)=O)c1 [UNC10225029A] | 118.19 | 9.09% | 111.31 | 4.35% | 100.58 | 100.70 |  |  |  |  |  |  |  | 
CNc1nccc(-c2c(-c3ccc(F)cc3)ncn2CCCN2CCOCC2)n1 [UNC10225031A] | 73.64 | 11.89% | 102.35 | 8.16% | 87.71 | 104.14 |  |  |  |  |  |  |  | 
Cn1cncc1-c1cc2c(Nc3ccc(OCc4ccccc4)cc3)ncnc2cn1 [UNC10225035A] | 76.24 | 18.86% | 109.40 | 6.44% |  |  | 110.55 | 106.44 |  |  |  |  |  | 
Cc1ccc(NC(=O)c2ccnc(N3CCCCC3)c2)cc1-c1ccc(C(=O)NCC2CC2)cc1 [UNC10225036A] | 94.08 | 6.82% | 108.51 | 5.85% | 84.91 | 99.52 |  |  |  |  |  |  |  | 
Cn1cc(-c2ccc3c(c2)CCN3C(=O)Cc2cccc(Cl)c2)c2c(N)ncnc21 [UNC10225039A] | 96.09 | 17.54% | 137.18 | 7.96% | 87.65 | 95.36 |  |  |  |  |  |  |  | 
COc1ccc(NC(=O)c2ccoc2)cc1-c1ccc(C(=O)NCC2CC2)cc1 [UNC10225046A] | 86.14 | 9.04% | 104.87 | 6.55% | 103.40 | 103.73 |  |  |  |  |  |  |  | 
CCn1c(-c2nonc2N)nc2c(-c3ccccc3)ncc(OCCCN)c21.O=C(O)C(F)(F)F.O=C(O)C(F)(F)F [UNC10225047A] | 103.12 | 79.68% | 137.54 | 27.76% | 51.60 | 50.36 |  |  |  |  |  |  |  | 
Clc1ccc(-c2cc(-c3c[nH]nc3-c3ccccn3)ccn2)cc1 [UNC10225057A] | 69.86 | 9.30% | 99.07 | 5.33% |  |  | 80.85 | 100.06 |  |  |  |  |  | 
Nc1nccc(-c2c(-c3ccc(F)cc3)ncn2C2CCN(Cc3ccccc3)CC2)n1 [UNC10225058A] | 75.20 | 7.38% | 98.98 | 3.25% | 142.65 | 129.81 |  |  |  |  |  |  |  | 
COc1cc2ncn(-c3cc(OCc4ccncc4)c(C(N)=O)s3)c2cc1OC [UNC10225069A] | 99.11 | 7.35% | 104.39 | 3.88% | 66.90 | 87.03 |  |  |  |  |  |  |  | 
Cn1cc(-c2ccc3c(c2)CCN3C(=O)Cc2cc(F)cc(F)c2F)c2c(N)ncnc21 [UNC10225071A] | 97.57 | 19.64% | 91.42 | 5.81% | 128.82 | 133.47 |  |  |  |  |  |  |  | 

— paper PMC9851200, “Multiparameter phenotypic screening for endogenous TFEB and TFE3 translocation identifies novel chemical series modulating lysosome function” (Autophagy, 2022)
